Experimental data published in patent US20170121768A1, “ATRIAL FIBRILLATION THERAPY” (The University of Birmingham, priority 2014, published 2017).

Assays:
[1] = system: Pitx2c+/- mouse heart (left atrium); test: Electrophysiological study in the isolated Langendorff-perfused beating heart, Pitx2c+/- mice
Text: (§1) The inventors studied the effects of the sodium channel blocker flecainide in the isolated, beating heart of wild type mice and mice with a heterozygous deletion of the Pitx2c gene. This mouse model (provided by Nigel Brown, St George's London) is an established model for reduced Pitx2 mRNA expression that is susceptible to AF. […] PITX2c^+/− and WT hearts (3-4 months old), were rapidly excised and Langendorff-perfused to record left atrial (LA) monophasic action potential duration. In this preparation, the beating heart is perfused with a warm, oxygenated modified Krebs-Henseleit solution containing (in mmol/1): NaCl 118; NaHCO3 24.88; KH2PO 1.18; Glucose 5.55; Na-Pyruvate 5; MgSO4 0.83; CaCl2 1.8; KCl 3.52 (95% O2-5% CO2, pH 7.4) at constant perfusion pressure (100±5 mmHg) and coronary flow (4±0.5 ml/min). Thereby, detailed electrophysiological measurements can be taken for 1-2 hours in the beating, functioning, intact heart (perfusate temperature 37° C., perfusion flow rate 3-5 mL/min) (Fabritz et al., Basic Res Cardiol 2003; 98:25-32). An octapolar murine electrophysiology catheter (0.5 mm electrode spacing, CIB'ER MOUSE, NuMED, Hopkinton, N.Y., USA) was inserted into the right atrium (RA) and right ventricle for pacing. Atrial and ventricular electrograms and monophasic action potential (MAP) from the left atrium were simultaneously recorded. After instrumentation, the hearts were subjected to a stabilization period of 10 minutes, followed by observation of spontaneous sinus rhythm for 5 minutes to provoke repolarization-related arrhythmias. Then the right atrium was paced at constant physiological heart rates (80-120 ms paced cycle length) for 1.5 minutes of pacing per heart rate to record steady-state action potential duration, and premature right atrial stimulation was performed using trains of 8 beats following by a premature stimulus in 2 ms steps to determine the effective refractory period (ERP) and inducibility of arrhythmias. Arrhythmias>1 second were counted. The pacing protocol was repeated after adding flecainide acetate (1 μm) to the perfusate. Experiments were accepted for analysis of action potential duration and activation time if they met published quality criteria and if MAPs were stable. […] were accepted for analysis of action potentials and activation times, and signals>0.5 mV amplitude were accepted for evaluation of arrhythmias. Recordings were manually screened for arrhythmias. Atrial fibrillation was defined as >5 closely couple polymorphic consecutive atrial ectopic beats with a cycle length shorter than sinus-rhythm cycle length.

[2] = system: wild type mouse heart (left atrium); test: Electrophysiological study in the isolated Langendorff-perfused beating heart, wild type mice
Text: as §1

Pitx2c+/- left atria = test: Transmembrane potential recordings in isolated, superfused left atria, Pitx2c+/-; design: species or system mouse; settings: sharp electrodes
Description: (§2) Transmembrane action potentials were recorded from isolated superfused left atria using borosilicate glass microelectrodes (tip resistance 15-30 MΩ), filled with 3 M KCl. […] LA were paced at different cycle lengths at 2 ms pulse width at 2× diastolic threshold through bipolar platinum electrodes. APD was analysed off line (spike 2, CED, UK). After 15 min pacing for equilibration, preparations were paced successively at increasing frequencies from 0.5 to 10 Hz, with 200 beats at each frequency to ensure steady state prior to recording.

wildtype left atria = test: Transmembrane potential recordings in isolated, superfused left atria, wild type; design: species or system mouse; settings: sharp electrodes
Description: as §2

SMILES	effective refractory period (ERP) ([1]; Pitx2c+/- hearts after flecainide perfusion, compared with wild-type)	suppression of inducible atrial fibrillation ([1]; Pitx2c+/- hearts with AF at baseline (8/21), flecainide acetate 1 μm in perfusate, premature atrial stimulation)	atrial action potential duration (APD) ([1]; Pitx2c+/- hearts, flecainide perfusion, paced cycle lengths 80-100-120 ms)	post-repolarization refractoriness ([1]; Pitx2c+/- mice, 80 ms paced cycle length, flecainide perfusion)	atrial activation times ([1]; Pitx2c+/- mice, after flecainide perfusion)	atrial action potential duration (APD) ([2]; WT hearts, flecainide perfusion, paced cycle lengths 80-100-120 ms)	post-repolarization refractoriness ([2]; WT mice, 80 ms paced cycle length, flecainide perfusion)	hearts with arrhythmias ([2]; wild type hearts with flecainide (baseline 4/16), arrhythmias >1 second counted)	suppression of inducible atrial fibrillation ([2]; wild type hearts, flecainide acetate 1 μm in perfusate, premature atrial stimulation)	atrial activation times ([2]; wild-type mice, after flecainide perfusion)	resting membrane potential (Pitx2c+/- left atria)	resting membrane potential (wildtype left atria)	atrial APD ([1]; Pitx2c+/- hearts, sotalol 10 μM, three pairs of mice)	atrial APD ([2]; WT hearts, sotalol 10 μM, three pairs of mice)
O=C(NCC1CCCCN1)c1cc(OCC(F)(F)F)ccc1OCC(F)(F)F (centres unmarked) [flecainide]	increases effective refractory periods	suppressed atrial fibrillation in all Pitx2c+/− hearts	does not alter atrial APD	12 ms	marked effect	does not alter atrial APD	7.5 ms	4/11	did not suppress atrial fibrillation	negligible effect	did not alter resting membrane potential	did not alter resting membrane potential	–	–
CC(C)NCC(O)c1ccc(NS(C)(=O)=O)cc1 (centres unmarked) [sotalol, d,l sotalol]	–	–	–	–	–	–	–	–	–	–	–	–	did not alter atrial APD	prolonged atrial APD
